Laboratory results: the supplement of paper PMC4862054

Assays:
Assay in all cases: normalised response (% of control), CellTiter-Glo; higher = more viable cells (100 = DMSO, 0 = benzethonium chloride kill control)
Settings in all cases: incubation time: 72 h
[1] = system: HCC1937
Summary of the method: (§1)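 Each value is the plate-normalised signal at one concentration of the series. Breast cancer cell lines (20 µl suspension) were incubated 72 h in 384-well plates with compound at 5 concentrations in 10-fold steps over a compound-specific 10,000-fold range. CellTox Green and then CellTiter-Glo were read, and each plate was scaled to 0.1 % DMSO (100) and a positive kill control (0).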

[2] = system: DU-4475
Summary of the method: as §1

[3] = system: HCC1599
Summary of the method: as §1

[4] = system: CAL-148
Summary of the method: as §1

[5] = system: Hs578T
Summary of the method: as §1

[6] = system: MDA-MB-468
Summary of the method: as §1

[7] = system: CAL-120
Summary of the method: as §1

[8] = system: BT-549
Summary of the method: as §1

[9] = system: BT-474
Summary of the method: as §1

[10] = system: CAL-51
Summary of the method: as §1

[11] = system: HDQ-P1
Summary of the method: as §1

[12] = system: MDA-MB-453
Summary of the method: as §1

[13] = system: MDA-MB-231
Summary of the method: as §1

[14] = system: MDA-MB-436
Summary of the method: as §1

[15] = system: MCF-10A
Summary of the method: as §1

[16] = system: HCC1143
Summary of the method: as §1

[17] = system: SK-BR-3
Summary of the method: as §1

[18] = system: MFM-223
Summary of the method: as §1

[19] = system: CAL-85-1
Summary of the method: as §1

| SMILES | normalised response [1] [%] | normalised response [2] [%] | normalised response [3] [%] | normalised response [4] [%] | normalised response [5] [%] | normalised response [6] [%] | normalised response [7] [%] | normalised response [8] [%] | normalised response [9] [%] | normalised response [10] [%] | normalised response [11] [%] | normalised response [12] [%] | normalised response [13] [%] | normalised response [14] [%] | normalised response [15] [%] | normalised response [16] [%] | normalised response [17] [%] | normalised response [18] [%] | normalised response [19] [%] |
| --- | --- | --- | --- | --- | --- | --- | --- | --- | --- | --- | --- | --- | --- | --- | --- | --- | --- | --- | --- |
| CN(C)CCN1C(=O)c2cccc3cc(N)cc(c23)C1=O [Amonafide] (1 nM) | 99.3 | 101 | 102 | 99.9 | 97.6 | 94.7 | 99.7 | 101 | 104 | 120 | 97.3 | 105 | 102 | 100 | 88.6 | 94 | 103 | 103 | 101 |
| Cn1c(=O)n(-c2ccc(C(C)(C)C#N)cc2)c2c3cc(-c4cnc5ccccc5c4)ccc3ncc21 [Dactolisib] (0.1 nM) | 98.8 | 103 | 122 | 102 | 102 | 110 | 97.4 | 100 | 104 | 107 | 102 | 109 | 105 | 99.6 | 105 | 97.4 | 111 | 108 | 101 |
| Nc1nc(OCc2cc(Br)cs2)c2[nH]cnc2n1 [Lomeguatrib] (1 nM) | 103 | 99.2 | 90.9 | 92.5 | 99 | 96.2 | 101 | 103 | 100 | 118 | 104 | 97.6 | 101 | 110 | 108 | 97.6 | 102 | 102 | 99.9 |
| Cn1cncc1[C@@](N)(c1ccc(Cl)cc1)c1ccc2c(c1)c(-c1cccc(Cl)c1)cc(=O)n2C [Tipifarnib] (1 nM) | 93.4 | 103 | 93.1 | 97.3 | 96.2 | 93.4 | 92.2 | 102 | 89.8 | 90.2 | 93.5 | 109 | 99.5 | 88 | 94.5 | 94.6 | 102 | 96.3 | 102 |
| COc1ccccc1S(=O)(=O)Nc1ccc2c(c1)CN(C)C(=O)N2 [PFI-1] (1 nM) | 99.2 | 104 | 80.6 | 107 | 107 | 90.8 | 100 | 96.5 | 93.7 | 77.9 | 96 | 105 | 103 | 94.8 | 112 | 94.2 | 104 | 101 | 98 |
| CNNCc1ccc(C(=O)NC(C)C)cc1 [Procarbazine] (10 nM) | 107 | 107 | 91.3 | 108 | 101 | 113 | 102 | 100 | 97.9 | 66.9 | 109 | 95.8 | 106 | 97.2 | 103 | 105 | 109 | 104 | 99 |
| CN(C)C[C@@H]1CCn2cc(c3ccccc32)C2=C(C(=O)NC2=O)c2cn(c3ccccc23)CCO1 [Ruboxistaurin] (10 nM) | 99.5 | 95.3 | 104 | 96.1 | 98.1 | 103 | 94.3 | 95.5 | 99.1 | 91.4 | 101 | 100 | 94 | 101 | 98.3 | 99.9 | 116 | 94.6 | 95.6 |
| COc1ccc(-c2ccc3c(N4CCOC[C@@H]4C)nc(N4CCOC[C@@H]4C)nc3n2)cc1CO [AZD8055] (10 nM) | 84.2 | 92 | 98.3 | 82.5 | 92.2 | 80.1 | 81.1 | 77.9 | 84.8 | 92.8 | 74.6 | 79.3 | 88 | 76.5 | 87 | 86.8 | 53.5 | 77.8 | 85.4 |
| NS(=O)(=O)OC[C@@H]1C[C@@H](n2ccc3c(N[C@H]4CCc5ccccc54)ncnc32)C[C@@H]1O [Pevonedistat] (10 nM) | 99.1 | 109 | 97.1 | 109 | 103 | 97.2 | 97.8 | 94 | 114 | 77 | 95.9 | 100 | 107 | 96.6 | 112 | 102 | 93.5 | 102 | 100 |
| CNNCc1ccc(C(=O)NC(C)C)cc1 [Procarbazine] (1 nM) | 111 | 103 | 109 | 104 | 108 | 104 | 101 | 111 | 102 | 88.6 | 104 | 108 | 104 | 101 | 111 | 112 | 112 | 105 | 103 |
| Cn1c(=O)n(-c2ccc(C(C)(C)C#N)cc2)c2c3cc(-c4cnc5ccccc5c4)ccc3ncc21 [Dactolisib] (1 nM) | 98.7 | 107 | 95.8 | 116 | 95.7 | 103 | 90.2 | 101 | 106 | 83.4 | 95 | 110 | 107 | 95.8 | 113 | 98.5 |  | 108 | 101 |
| c1ccc([C@H]2CN3CCSC3=N2)cc1 [Levamisole] (1 nM) | 99.4 | 105 | 106 | 113 | 105 | 112 | 98.1 | 106 | 106 | 69.9 | 104 | 112 | 107 | 97.4 | 107 | 103 | 109 | 106 | 99.9 |
| CC(C)c1c(C(=O)Nc2ccccc2)c(-c2ccccc2)c(-c2ccc(F)cc2)n1CC[C@@H](O)C[C@@H](O)CC(=O)O [Atorvastatin] (10 nM) | 99.7 | 98.7 | 104 | 101 | 101 | 104 | 96.8 | 90 | 100 | 76.1 | 101 | 104 | 96.9 | 96.5 | 100 | 103 | 102 | 102 | 98.9 |
| CC(C)(C#N)c1cc(Cn2cncn2)cc(C(C)(C)C#N)c1 [Anastrozole] (1 nM) | 99.7 | 105 | 110 | 94.8 | 99.3 | 102 | 101 | 109 | 100 | 89.9 | 103 | 112 | 96.7 | 95.2 | 102 | 95.5 | 111 | 106 | 102 |
| NS(=O)(=O)OC[C@@H]1C[C@@H](n2ccc3c(N[C@H]4CCc5ccccc54)ncnc32)C[C@@H]1O [Pevonedistat] (1 nM) | 100 | 94.7 | 95.9 | 106 | 99.7 | 96.7 | 100 | 99.2 | 93.6 | 79.2 | 100 | 110 | 102 | 99.7 | 115 | 105 | 107 | 102 | 93.9 |
| CCCCCCCCc1ccc(CCC(N)(CO)CO)cc1 [Fingolimod] (1 nM) | 95.9 | 101 | 106 | 97.3 | 100 | 107 | 96.4 | 106 | 97.7 | 97.7 | 98.6 | 109 | 98 | 92.8 | 103 | 96.8 | 102 | 103 | 103 |
| CN(C)CCN1C(=O)c2cccc3cc(N)cc(c23)C1=O [Amonafide] (10 nM) | 96.9 | 99.7 | 95 | 86.5 | 99.8 | 93 | 97 | 100 | 98.7 | 123 | 100 | 98.6 | 102 | 103 | 97.6 | 101 |  | 99.8 | 98 |
| Nc1ncnc2c1c(COc1cccc(Cl)c1)nn2C1CCOCC1 (10 nM) | 97.7 | 105 | 101 | 115 | 108 | 106 | 96.6 | 98.2 | 101 | 94.8 | 99.1 | 104 | 107 | 105 | 114 | 105 |  | 105 | 101 |
| O=C(O)CCCc1ccc(N(CCCl)CCCl)cc1 [Chlorambucil] (10 nM) | 98.8 | 101 | 97.8 | 101 | 103 | 101 | 97.2 | 102 | 99.1 | 95.2 | 99.7 | 101 | 106 | 104 | 93.6 | 102 |  | 108 | 108 |
| CC[C@]1(O)C[C@H]2CN(CCc3c([nH]c4ccccc34)[C@@](C(=O)OC)(c3cc4c(cc3OC)N(C=O)[C@H]3[C@@](O)(C(=O)OC)[C@H](OC(C)=O)[C@]5(CC)C=CCN6CC[C@]43[C@@H]65)C2)C1 [Vincristine] (1 nM) | 96.3 | 106 | 113 | 110 | 105 | 95.3 | 96.4 | 87.6 | 100 | 91.4 | 97.6 | 104 | 99.4 | 106 | 104 | 104 |  | 104 | 102 |
| C/C(=C\c1csc(C)n1)[C@@H]1C[C@@H]2O[C@]2(C)CCC[C@H](C)[C@H](O)[C@@H](C)C(=O)C(C)(C)[C@@H](O)CC(=O)O1 [Patupilone] (1 nM) | 103 | 106 | 117 | 106 | 104 | 109 | 103 | 97.3 | 104 | 99.2 | 97.3 | 107 | 107 | 108 | 106 | 111 |  | 101 | 105 |
